# Source: patent US20250320206A1, “STAT6 DEGRADERS” (Gilead Sciences, Inc., priority 2024, published 2025)
# Tests used:
# [1] = system: Eotaxin-3 release in human whole blood stimulated with IL-4; experiment: Human Whole Blood Eotaxin-3 Assay (IL-4 stimulated eotaxin-3 release); type: cell-based; conditions: IL-4 stimulation, 48 h, values given for compounds with >80% Emax, geometric mean
# Summary of the method: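 Lithium-heparin human whole blood preincubated 2 h at 37° C with 4-fold serially diluted compounds (0.5% DMSO), then stimulated with recombinant human IL-4 ([…]) for 48 h. Eotaxin-3 (CCL26) in supernatant quantified by MSD immunoassay.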
# STAT6 = molecular target: T1, STAT6 (Homo sapiens, UniProt P42226); experiment: Stat6 Degrader Assay (HiBiT based, HeLa LgBiT clone 4.14); type: cell-based; conditions: HeLa LgBiT clone 4.14 HiBiT-STAT6, 4-24 h incubation; values given for compounds with >80% Emax; geometric mean; read-out: STAT6 degradation DC50
# T1 construct: These cells express endogenous STAT6; host or cells: HeLa LgBiT clone 4.14
# T1 sequence (P42226 1-847): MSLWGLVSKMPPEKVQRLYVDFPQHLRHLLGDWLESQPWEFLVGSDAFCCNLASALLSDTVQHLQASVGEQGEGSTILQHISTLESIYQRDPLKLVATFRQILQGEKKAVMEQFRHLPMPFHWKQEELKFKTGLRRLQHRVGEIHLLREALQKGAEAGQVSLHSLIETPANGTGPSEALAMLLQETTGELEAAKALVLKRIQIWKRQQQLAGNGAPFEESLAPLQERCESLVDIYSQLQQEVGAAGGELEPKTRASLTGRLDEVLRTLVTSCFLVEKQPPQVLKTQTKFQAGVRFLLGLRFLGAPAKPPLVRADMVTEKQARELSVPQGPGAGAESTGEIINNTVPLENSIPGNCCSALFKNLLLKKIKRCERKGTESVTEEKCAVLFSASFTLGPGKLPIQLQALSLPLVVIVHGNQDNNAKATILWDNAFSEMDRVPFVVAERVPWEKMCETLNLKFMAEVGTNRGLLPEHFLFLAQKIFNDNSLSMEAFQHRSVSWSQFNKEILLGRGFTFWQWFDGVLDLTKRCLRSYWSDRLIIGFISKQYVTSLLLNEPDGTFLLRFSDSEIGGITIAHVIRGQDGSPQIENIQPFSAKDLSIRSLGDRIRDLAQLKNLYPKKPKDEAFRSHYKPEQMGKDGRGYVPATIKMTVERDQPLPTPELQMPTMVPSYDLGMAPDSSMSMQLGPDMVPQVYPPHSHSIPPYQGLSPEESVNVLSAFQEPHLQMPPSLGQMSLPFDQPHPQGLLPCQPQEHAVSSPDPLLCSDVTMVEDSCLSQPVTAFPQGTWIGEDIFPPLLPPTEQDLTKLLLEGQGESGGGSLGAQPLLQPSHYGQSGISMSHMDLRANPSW
# Summary of the method: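 HeLa LgBiT clone 4.14 cells with CRISPR HiBiT-tagged endogenous STAT6, 5000 cells/well, compound dosed then incubated 4-24 h at 37° C, 5% CO2. Nano-Glo substrate added, 0.5 h, luminescence read as non-degraded STAT6. Terfenadine 50 μM (cell kill) defines 100% degradation.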
EC50 [1] [nM],DC50 (STAT6) [nM],SMILES
0.2,0.1,"CNc1cc(=O)n(-c2ccnc3c2cc([C@H](C)N2CC=C(c4c(C)cc(C(=O)N(C)c5ccc(N6CCC(Cc7ccc8c(c7)n(C)c(=O)n8C7CCC(=O)NC7=O)CC6)nc5)cc4F)CC2)n3C)cc1F (stereo partly drawn) [Example 3u241, N-(6-(4-((1-(2,6-dioxopiperidin-3-yl)-3-methyl-2-oxo-2,3-dihydro-1H-benzo[d]-imidazol-5-yl)methyl)piperidin-1-yl)pyridin-3-yl)-3-fluoro-4-(1-((S)-1-(4-(5-fluoro-4-(methylamino)-2-oxopyridin-1 (2H)-yl)-1-methyl-1H-pyrrolo[2,3-b]pyridin-2-yl)ethyl)-1,2,3,6-tetrahydropyridin-4-yl)-N,5-dimethylbenzamide]"
0.3,0.1,"CNc1ccn(-c2ccnc3c2cc(CN2CCC(c4c(F)cc(C(=O)N(C)c5ccc(C6CCN(Cc7ccc8c(c7)n(C)c(=O)n8C7CCC(=O)NC7=O)CC6)cc5)cc4F)CC2)n3C)c(=O)c1 (stereo not shown) [Example 3u244, N-(4-(1-((1-(2,6-dioxopiperidin-3-yl)-3-methyl-2-oxo-2,3-dihydro-1H-benzo[d]imidazol-5-yl)methyl)piperidin-4-yl)phenyl)-3,5-difluoro-N-methyl-4-(1-((1-methyl-4-(4-(methylamino)-2-oxopyridin-1 (2H)-yl)-1H-pyrrolo[2,3-b]pyridin-2-yl)methyl)piperidin-4-yl)benzamide]"
0.1,0.1,"CNc1cc(=O)n(-c2ccnc3c2cc(CN2CCC(c4c(F)cc(C(=O)N(C)c5ccc(C6CCN(Cc7ccc8c(c7)n(C)c(=O)n8C7CCC(=O)NC7=O)CC6)cc5)cc4F)CC2)n3C)cc1F (stereo not shown) [Example 3u245, N-(4-(1-((1-(2,6-dioxopiperidin-3-yl)-3-methyl-2-oxo-2,3-dihydro-1H-benzo[d]imidazol-5-yl)methyl)piperidin-4-yl)phenyl)-3,5-difluoro-4-(1-((4-(5-fluoro-4-(methylamino)-2-oxopyridin-1 (2H)-yl)-1-methyl-1H-pyrrolo[2,3-b]pyridin-2-yl)methyl)piperidin-4-yl)-N-methylbenzamide]"
0.3,0.04,"CNc1ccn(-c2ccnc3c2cc(CN2CC=C(c4c(C)cc(C(=O)N(C)c5ccc(C6CCN(Cc7ccc8c(c7)n(C)c(=O)n8C7CCC(=O)NC7=O)CC6)cc5)cc4F)CC2)n3C)c(=O)c1 (stereo not shown) [Example 3u247, N-(4-(1-((1-(2,6-dioxopiperidin-3-yl)-3-methyl-2-oxo-2,3-dihydro-1H-benzo[d]-imidazol-5-yl)methyl)piperidin-4-yl)phenyl)-3-fluoro-N,5-dimethyl-4-(1-((1-methyl-4-(4-(methyl-amino)-2-oxopyridin-1 (2H)-yl)-1H-pyrrolo[2,3-b]pyridin-2-yl)methyl)-1,2,3,6-tetrahydropyridin-4-yl)benzamide]"
0.3,0.2,"CNc1ccn(-c2ccnc3c2cc(CN2CCC(c4c(C)cc(C(=O)N(C)c5ccc(C6CCN(Cc7ccc8c(c7)n(C)c(=O)n8C7CCC(=O)NC7=O)CC6)cc5)cc4F)CC2)n3C)c(=O)c1 (stereo not shown) [Example 3u248, N-(4-(1-((1-(2,6-dioxopiperidin-3-yl)-3-methyl-2-oxo-2,3-dihydro-1H-benzo[d]imidazol-5-yl)methyl)piperidin-4-yl)phenyl)-3-fluoro-N,5-dimethyl-4-(1-((1-methyl-4-(4-(methylamino)-2-oxopyridin-1 (2H)-yl)-1H-pyrrolo[2,3-b]pyridin-2-yl)methyl)piperidin-4-yl)benzamide]"
1.4,0.6,"CNc1ccn(-c2ccnc3c2cc([C@H](C)N2CCC(c4c(C)cc(C(=O)N(C)c5ccc(C6CCN(Cc7ccc8c(c7)n(C)c(=O)n8C7CCC(=O)NC7=O)CC6)cc5)cc4F)CC2)n3C)c(=O)c1 (stereo partly drawn) [Example 3u249, N-(4-(1-((1-(2,6-dioxopiperidin-3-yl)-3-methyl-2-oxo-2,3-dihydro-1H-benzo[d]-imidazol-5-yl)methyl)piperidin-4-yl)phenyl)-3-fluoro-N,5-dimethyl-4-(1-((S)-1-(1-methyl-4-(4-(methyl-amino)-2-oxopyridin-1 (2H)-yl)-1H-pyrrolo[2,3-b]pyridin-2-yl)ethyl)piperidin-4-yl)benzamide]"
0.4,0.1,"Cc1cc(C(=O)N(C)c2ccc(C3CCN(Cc4ccc5c(c4)n(C)c(=O)n5C4CCC(=O)NC4=O)CC3)cc2)cc(F)c1C1=CCN([C@@H](C)c2cc3c(-n4ccc5c(c4=O)CCN5)ccnc3n2C)CC1 (stereo partly drawn) [Example 3u250, N-(4-(1-((1-(2,6-dioxopiperidin-3-yl)-3-methyl-2-oxo-2,3-dihydro-1H-benzo[d]imidazol-5-yl)methyl)piperidin-4-yl)phenyl)-3-fluoro-N,5-dimethyl-4-(1-((S)-1-(1-methyl-4-(4-oxo-1,2,3,4-tetrahydro-5H-pyrrolo[3,2-c]pyridin-5-yl)-1H-pyrrolo[2,3-b]pyridin-2-yl)ethyl)-1,2,3,6-tetrahydropyridin-4-yl)benzamide]"
0.9,0.2,"CN(C(=O)c1cc(F)c(C2CCN(Cc3cc4c(-n5ccc6c(c5=O)CCN6)ccnc4n3C)CC2)c(F)c1)c1ccc(C2CCN(Cc3ccc4c(c3)n(C)c(=O)n4C3CCC(=O)NC3=O)CC2)cc1 (stereo not shown) [Example 3u251, N-(4-(1-((1-(2,6-dioxopiperidin-3-yl)-3-methyl-2-oxo-2,3-dihydro-1H-benzo[d]-imidazol-5-yl)methyl)piperidin-4-yl)phenyl)-3,5-difluoro-N-methyl-4-(1-((1-methyl-4-(4-oxo-1,2,3,4-tetrahydro-5H-pyrrolo[3,2-c]pyridin-5-yl)-1H-pyrrolo[2,3-b]pyridin-2-yl)methyl)piperidin-4-yl)-benzamide]"
0.2,0.4,"CNc1ccn(-c2ccnc3c2cc([C@H](C)N2CC=C(c4c(C)cc(C(=O)N5CCn6nc(CN7CCC(c8ccc9c(c8)n(C8CC8)c(=O)n9C8CCC(=O)NC8=O)CC7)cc6C5)cc4F)CC2)n3C)c(=O)c1 (stereo partly drawn) [Example 3u254, 3-(3-cyclopropyl-5-(1-((5-(3-fluoro-5-methyl-4-(1-((S)-1-(1-methyl-4-(4-(methylamino)-2-oxopyridin-1 (2H)-yl)-1H-pyrrolo[2,3-b]pyridin-2-yl)ethyl)-1,2,3,6-tetrahydropyridin-4-yl)benzoyl)-4,5,6,7-tetrahydropyrazolo[1,5-a]pyrazin-2-yl)methyl)piperidin-4-yl)-2-oxo-2,3-dihydro-1H-benzo[d]imidazol-1-yl)piperidine-2,6-dione]"
0.8,2.5,"CNc1ccn(-c2ccnc3c2cc([C@H](C)N2CC=C(c4c(C)cc(C(=O)N5CCC(CN6CCN(c7cc8c(cc7F)n(C7CCC(=O)NC7=O)c(=O)n8C)CC6)CC5)cc4F)CC2)n3C)c(=O)n1 (stereo partly drawn) [Example 3u256, 3-(6-fluoro-5-(4-((1-(3-fluoro-5-methyl-4-(1-((S)-1-(1-methyl-4-(4-(methylamino)-2-oxopyrimidin-1 (2H)-yl)-1H-pyrrolo[2,3-b]pyridin-2-yl)ethyl)-1,2,3,6-tetrahydropyridin-4-yl)benzoyl)piperidin-4-yl)methyl)piperazin-1-yl)-3-methyl-2-oxo-2,3-dihydro-1H-benzo[d]imidazol-1-yl)piperidine-2,6-dione]"
7,3.1,"CNc1cc(=O)n(-c2ccnc3c2cc([C@H](C)N2CC=C(c4c(C)cc(C(=O)N5CCC(CN6CCN(Cc7ccc8c(c7)C7(CCC7)C(=O)N8C7CCC(=O)NC7=O)CC6)CC5)cc4F)CC2)n3C)cc1F (stereo partly drawn) [Example 3u258, 3-(5′-((4-((1-(3-fluoro-4-(1-((S)-1-(4-(5-fluoro-4-(methylamino)-2-oxopyridin-1 (2H)-yl)-1-methyl-1H-pyrrolo[2,3-b]pyridin-2-yl)ethyl)-1,2,3,6-tetrahydropyridin-4-yl)-5-methylbenzoyl)piperidin-4-yl)methyl)piperazin-1-yl)methyl)-2′-oxospiro[cyclobutane-1,3′-indolin]-1′-yl)piperidine-2,6-dione]"
